Results published in ChEMBL document CHEMBL3885881, “DrugMatrix”.

Species on record: Rattus norvegicus
Assay: DrugMatrix - Regimen: Daily Repeat
Assay type: toxicity, organism-based, Sprague-Dawley
Design: regimen Daily Repeat, gender Male, age 6-8 weeks
Details: in vivo, iv, vehicle 100 % SALINE; for ABSOLUTE BASOPHIL / ABSOLUTE EOSINOPHIL / ABSOLUTE LYMPHOCYTE / ABSOLUTE MONOCYTE / ABSOLUTE SEGMENTED NEUTROPHIL / BASOPHIL / EOSINOPHIL / ERYTHROCYTE COUNT / HEMATOCRIT / HEMOGLOBIN / LEUKOCYTE COUNT / LYMPHOCYTE / MEAN CORPUSCULAR HEMOGLOBIN / MEAN CORPUSCULAR HEMOGLOBIN CONCENTRATION / MEAN CORPUSCULAR VOLUME / MONOCYTE / NEUTROPHIL / NUCLEATED RED BLOOD CELLS / PLATELET COUNT: tissue Blood; for ALANINE AMINOTRANSFERASE / ALBUMIN / ALKALINE PHOSPHATASE / ASPARTATE AMINOTRANSFERASE / BLOOD UREA NITROGEN / CARBON DIOXIDE / CHOLESTEROL / CREATINE PHOSPHOKINASE / CREATININE / GLUCOSE / LACTATE DEHYDROGENASE / LIPASE / PHOSPHORUS / POTASSIUM / SODIUM / TOTAL BILIRUBIN / TOTAL PROTEIN / URIC ACID: tissue Plasma
[1] = 0 mg/kg, 72 h, dose level Control, time 3 day
[2] = 0 mg/kg, 120 h, dose level Control, time 5 day
[3] = 18 mg/kg, 72 h, dose level High, time 3 day

SMILES: N=C(N)c1ccc(OCCCCCOc2ccc(C(=N)N)cc2)cc1 [PENTAMIDINE]
- ABSOLUTE BASOPHIL [1]: 0 CELLS/uL
- ABSOLUTE EOSINOPHIL [1]: 193.5 CELLS/uL
- ABSOLUTE LYMPHOCYTE [1]: 15717.5 CELLS/uL
- ABSOLUTE MONOCYTE [1]: 389.33 CELLS/uL
- ABSOLUTE SEGMENTED NEUTROPHIL [1]: 1883 CELLS/uL
- BASOPHIL [1]: 0%
- EOSINOPHIL [1]: 1.17%
- ERYTHROCYTE COUNT [1]: 5.68 x10E6/uL
- HEMATOCRIT [1]: 35.83%
- HEMOGLOBIN [1]: 13.48 G/DL
- LEUKOCYTE COUNT [1]: 18.18 x10E3/uL
- LYMPHOCYTE [1]: 86.67%
- MEAN CORPUSCULAR HEMOGLOBIN [1]: 23.8 pg
- MEAN CORPUSCULAR HEMOGLOBIN CONCENTRATION [1]: 37.68 G/DL
- MEAN CORPUSCULAR VOLUME [1]: 63.27 fL
- MONOCYTE [1]: 2.17%
- NEUTROPHIL [1]: 10%
- NUCLEATED RED BLOOD CELLS [1]: 0 /100WBC
- PLATELET COUNT [1]: 1186.33 x10E3/uL
- ALANINE AMINOTRANSFERASE [1]: 68.5 u/L
- ALBUMIN [1]: 4.37 G/DL
- ALKALINE PHOSPHATASE [1]: 396.33 u/L
- ASPARTATE AMINOTRANSFERASE [1]: 92.5 u/L
- BLOOD UREA NITROGEN [1]: 18 mg/dL
- CARBON DIOXIDE [1]: 24.33 mmol/L
- CHOLESTEROL [1]: 67.17 mg/dL
- CREATINE PHOSPHOKINASE [1]: 378.67 u/L
- CREATININE [1]: 0.19 mg/dL
- GLUCOSE [1]: 178.33 mg/dL
- LACTATE DEHYDROGENASE [1]: 245.17 u/L
- LIPASE [1]: 9.2 u/L
- PHOSPHORUS [1]: 12.37 mg/dL
- POTASSIUM [1]: 6.48 MEQ/L
- SODIUM [1]: 143.28 MEQ/L
- TOTAL BILIRUBIN [1]: 0.23 mg/dL
- TOTAL PROTEIN [1]: 5.65 G/DL
- URIC ACID [1]: 1.6 mg/dL
- ABSOLUTE BASOPHIL [2]: 0 CELLS/uL
- ABSOLUTE EOSINOPHIL [2]: 27.5 CELLS/uL
- ABSOLUTE LYMPHOCYTE [2]: 13593.17 CELLS/uL
- ABSOLUTE MONOCYTE [2]: 576 CELLS/uL
- ABSOLUTE SEGMENTED NEUTROPHIL [2]: 1836.67 CELLS/uL
- BASOPHIL [2]: 0%
- EOSINOPHIL [2]: 0.17%
- ERYTHROCYTE COUNT [2]: 5.99 x10E6/uL
- HEMATOCRIT [2]: 37.42%
- HEMOGLOBIN [2]: 13.78 G/DL
- LEUKOCYTE COUNT [2]: 16.03 x10E3/uL
- LYMPHOCYTE [2]: 85.17%
- MEAN CORPUSCULAR HEMOGLOBIN [2]: 23.08 pg
- MEAN CORPUSCULAR HEMOGLOBIN CONCENTRATION [2]: 36.83 G/DL
- MEAN CORPUSCULAR VOLUME [2]: 62.6 fL
- MONOCYTE [2]: 3.5%
- NEUTROPHIL [2]: 11.17%
- NUCLEATED RED BLOOD CELLS [2]: 0 /100WBC
- PLATELET COUNT [2]: 1352.5 x10E3/uL
- ALANINE AMINOTRANSFERASE [2]: 49.83 u/L
- ALBUMIN [2]: 4.25 G/DL
- ALKALINE PHOSPHATASE [2]: 331.33 u/L
- ASPARTATE AMINOTRANSFERASE [2]: 86.17 u/L
- BLOOD UREA NITROGEN [2]: 19.5 mg/dL
- CARBON DIOXIDE [2]: 26.67 mmol/L
- CHOLESTEROL [2]: 67.5 mg/dL
- CREATINE PHOSPHOKINASE [2]: 346.17 u/L
- CREATININE [2]: 0.22 mg/dL
- GLUCOSE [2]: 170.67 mg/dL
- LACTATE DEHYDROGENASE [2]: 405.5 u/L
- LIPASE [2]: 8.83 u/L
- PHOSPHORUS [2]: 11.3 mg/dL
- POTASSIUM [2]: 6.06 MEQ/L
- SODIUM [2]: 143.4 MEQ/L
- TOTAL BILIRUBIN [2]: 0.17 mg/dL
- TOTAL PROTEIN [2]: 6.22 G/DL
- URIC ACID [2]: 1.63 mg/dL
- ABSOLUTE BASOPHIL [3]: 0 CELLS/uL
- ABSOLUTE EOSINOPHIL [3]: 160 CELLS/uL
- ABSOLUTE LYMPHOCYTE [3]: 13847.33 CELLS/uL
- ABSOLUTE MONOCYTE [3]: 361.33 CELLS/uL
- BASOPHIL [3]: 0%
- EOSINOPHIL [3]: 1%
- ERYTHROCYTE COUNT [3]: 5.86 x10E6/uL
- HEMATOCRIT [3]: 36.7%
- HEMOGLOBIN [3]: 13.8 G/DL
- LEUKOCYTE COUNT [3]: 15.4 x10E3/uL
- LYMPHOCYTE [3]: 90%
- MEAN CORPUSCULAR HEMOGLOBIN [3]: 23.57 pg
- MEAN CORPUSCULAR HEMOGLOBIN CONCENTRATION [3]: 37.6 G/DL
- MEAN CORPUSCULAR VOLUME [3]: 62.63 fL
- MONOCYTE [3]: 2.33%
- NEUTROPHIL [3]: 6.67%
- NUCLEATED RED BLOOD CELLS [3]: 0 /100WBC
- PLATELET COUNT [3]: 1444.67 x10E3/uL
- ALANINE AMINOTRANSFERASE [3]: 52 u/L
- ALBUMIN [3]: 4.13 G/DL
- ALKALINE PHOSPHATASE [3]: 303.67 u/L
- ASPARTATE AMINOTRANSFERASE [3]: 79 u/L
- BLOOD UREA NITROGEN [3]: 19 mg/dL
- CARBON DIOXIDE [3]: 26.67 mmol/L
- CHOLESTEROL [3]: 75.33 mg/dL
- CREATINE PHOSPHOKINASE [3]: 308.67 u/L
- CREATININE [3]: 0.22 mg/dL
- GLUCOSE [3]: 158.33 mg/dL
- LACTATE DEHYDROGENASE [3]: 129.67 u/L
- LIPASE [3]: 8.67 u/L
- PHOSPHORUS [3]: 11.17 mg/dL
- POTASSIUM [3]: 6.46 MEQ/L
- SODIUM [3]: 142 MEQ/L
- TOTAL BILIRUBIN [3]: 0.23 mg/dL
- TOTAL PROTEIN [3]: 6.13 G/DL
- URIC ACID [3]: 1.7 mg/dL
